System: not given
Experiment: not given
Settings: not given

melting point	Structure (SMILES)
189 to 191 °C	O=C(O)C(=O)Nc1nn(Cc2ccccc2)cc1C(=O)O (hydrate or solvate) [Example 2, 1-Benzyl-3-(oxalyl-amino)-1H-pyrazole-4-carboxylic acid]
> 250 °C	O=C(O)C(=O)Nc1scc(C2CCCCC2)c1C(=O)O (hydrate or solvate) [Example 3, 4-Cyclohexyl-2-(oxalyl-amino)-thiophene-3-carboxylic acid]
196 to 198 °C	O=C(O)C(=O)Nc1scc(-c2ccccc2)c1C(=O)O (hydrate or solvate) [Example 4, 2-(Oxalyl-amino)-4-phenyl-thiophene-3-carboxylic acid]
215 °C (dec.)	COc1ccc(Oc2ccc(-c3cc(NC(=O)C(=O)O)c(C(=O)O)s3)cc2)cc1 (hydrate or solvate) [Example 14, 5-(4-(4-Methoxy-phenoxy)-phenyl)-3-(oxalyl-amino)-thiophene-2-carboxylic acid]
230 to 231 °C	O=C(O)C(=O)Nc1sc(Cc2ccccc2)cc1C(=O)O [Example 17, 2-(Oxalyl-amino)-5-(phenyl-methyl)thiophene-3-carboxylic acid]
238 to 240 °C	O=C(O)C(=O)Nc1sc(-c2ccccc2)cc1C(=O)O [Example 19, 2-(Oxalyl-amino)-5-phenyl-thiophene-3-carboxylic acid]
243 to 244 °C (dec.)	O=C(CN1C(=O)c2ccccc2C1=O)NCc1cc(C(=O)O)c(NC(=O)C(=O)O)s1 [Example 41, 5-((2-(1,3-Dioxo-1.3-dihydro-isoindol-2-yl)-acetylamino)-methyl)-2-(oxalyl-amino)-thiophene-3-carboxylic acid]

Target: T1, PTP1B (truncated form, first 321 amino acids) (Homo sapiens, UniProt P18031)
T1 construct: a truncated form of PTP1B (corresponding to the first 321 amino acids); made in house; host or cells: E. coli
T1 sequence (P18031 1-321): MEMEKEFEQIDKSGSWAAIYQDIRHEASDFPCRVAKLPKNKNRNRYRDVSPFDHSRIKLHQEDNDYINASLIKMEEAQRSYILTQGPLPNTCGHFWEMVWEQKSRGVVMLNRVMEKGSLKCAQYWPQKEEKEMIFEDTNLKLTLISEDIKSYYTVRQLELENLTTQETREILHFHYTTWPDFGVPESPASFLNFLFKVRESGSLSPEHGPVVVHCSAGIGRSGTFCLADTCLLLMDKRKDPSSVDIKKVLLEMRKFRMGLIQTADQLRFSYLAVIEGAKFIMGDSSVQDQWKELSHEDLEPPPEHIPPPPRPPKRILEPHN
Experiment: Inhibition of truncated PTP1B, p-nitrophenyl phosphate substrate
Format: biochemical
Settings: p-nitrophenyl phosphate 0.16 to 10 mM; pH 5.5; 25° C., 60 minutes
Protocol: The compounds are evaluated for biological activity with a truncated form of PTP1B (corresponding to the first 321 amino acids), which was expressed in E. coli and purified to apparent homogeneity using published procedures well-known to those skilled in the art. The enzyme reactions are carried out using standard conditions essentially as described by Burke et al. (Biochemistry 35; 15989-15996 (1996)). The assay conditions are as follows. Appropriate concentrations of the compounds of the invention are added to the reaction mixtures containing different concentrations of the substrate, p-nitrophenyl phosphate (range: 0.16 to 10 mM—final assay concentration). The buffer used was 100 mM sodium acetate pH 5.5, 50 mM sodium chloride, 0.1% (w/v) bovine serum albumin and 5 mM dithiothreitol (total volume […]). The reaction was started by addition of the enzyme and carried out in microtiter plates at 25° C. for 60 minutes. The reactions are stopped by addition of NaOH. The enzyme activity was determined by measurement of the absorbance at 405 nm with appropriate corrections for absorbance at 405 nm of the compounds and p-nitrophenyl phosphate. The data are analyzed using nonlinear regression fit to classical Michaelis Menten enzyme kinetic models. Inhibition is expressed as Ki values in μM.

Ki [µM]	Structure (SMILES)
200	Cc1[nH]cc(NC(=O)C(=O)O)c1C(=O)O [Example 1, 2-Methyl4-(oxalyl-amino)-1H-pyrrole-3-carboxylic acid]
100	O=C(O)C(=O)Nc1scc(-c2ccccc2)c1C(=O)O [Example 4, 2-(Oxalyl-amino)-4-phenyl-thiophene-3-carboxylic acid]

— patent publication US20050119332A1, “Substituted thiophene compounds as modulators of protein tyrosine phosphatases (PTPases)” (priority 1998, published 2005)
